US6372446B1, “Method of selectively determining a fungal biomass” (Mycometer ApS, priority 1997, dated 2002)

Experiments:
Assay in all cases: Screening of fungi for enzyme activity with 4-methylumbelliferone-labelled substrates
Type in all cases: cell-based
Settings in all cases: substrate 10 μM, 25° C., pH 5
[1] = test system: Aureobasidium pullulans (QM 3092)
[2] = test system: Paecilomyces farinosus (AGM 5)
[3] = test system: Cladosporium herbarum (AGM 8)
[4] = test system: Penicillium commune (IBT 13713)
[5] = test system: Penicillium solitum (IBT 13771)
[6] = test system: Aspergillus oryzae (AGM 11)
[7] = test system: Mucor racemosus (AAS 310)
[8] = test system: Ascobolus crenulatus (AAS 1)
[9] = test system: Trametes versicolor (AGM 24)
[10] = test system: Rhizomucor pusillus (AAS 300)
[11] = test system: Schizophyllum commune (AGM 25)
[12] = test system: Sodaria fimicola (AAS 17)
Eurotium sp. (AAS 36) = test system: Eurotium sp. (AAS 36)
[13] = test system: Aspergillus versicolor (IBT 13738)

Cc1cc(=O)oc2cc(O[C@@H]3O[C@H](C)[C@H](O)[C@H](O)[C@H]3O)ccc12 [substrate 11, 4-methylumbelliferyl β-D-fucoside]
0 µmol: Enzyme activity: amount of released 4-methylumbelliferone during 5 hours of incubation ([1]; Aureobasidium pulluians (QM 3092), vegetable juice medium) | Enzyme activity: amount of released 4-methylumbelliferone ([1]; Aureobasidium pullulans (QM 3092), mineral medium) | Enzyme activity: amount of released 4-methylumbelliferone ([2]; mineral medium) | Enzyme activity: amount of released 4-methylumbelliferone during 5 hours of incubation ([2]; vegetable juice medium) | Enzyme activity: amount of released 4-methylumbelliferone ([3]; mineral medium) | Enzyme activity: amount of released 4-methylumbelliferone during 5 hours of incubation ([3]; vegetable juice medium) | Enzyme activity: amount of released 4-methylumbelliferone ([4]; mineral medium) | Enzyme activity: amount of released 4-methylumbelliferone during 5 hours of incubation ([4]; vegetable juice medium) | Enzyme activity: amount of released 4-methylumbelliferone ([5]; mineral medium) | Enzyme activity: amount of released 4-methylumbelliferone during 5 hours of incubation ([5]; vegetable juice medium) | Enzyme activity: amount of released 4-methylumbelliferone ([6]; mineral medium) | Enzyme activity: amount of released 4-methylumbelliferone during 5 hours of incubation ([6]; vegetable juice medium) | Enzyme activity: amount of released 4-methylumbelliferone ([7]; mineral medium) | Enzyme activity: amount of released 4-methylumbelliferone during 5 hours of incubation ([7]; vegetable juice medium) | Enzyme activity: amount of released 4-methylumbelliferone ([8]; mineral medium) | Enzyme activity: amount of released 4-methylumbelliferone during 5 hours of incubation ([8]; vegetable juice medium) | Enzyme activity: amount of released 4-methylumbelliferone ([9]; mineral medium) | Enzyme activity: amount of released 4-methylumbelliferone during 5 hours of incubation ([9]; vegetable juice medium) | Enzyme activity: amount of released 4-methylumbelliferone ([10]; mineral medium) | Enzyme activity: amount of released 4-methylumbelliferone during 5 hours of incubation ([10]; vegetable juice medium) | Enzyme activity: amount of released 4-methylumbelliferone ([11]; mineral medium) | Enzyme activity: amount of released 4-methylumbelliferone during 5 hours of incubation ([11]; vegetable juice medium) | Enzyme activity: amount of released 4-methylumbelliferone ([12]; mineral medium) | Enzyme activity: amount of released 4-methylumbelliferone during 5 hours of incubation ([12]; vegetable juice medium) | Enzyme activity: amount of released 4-methylumbelliferone (Eurotium sp. (AAS 36); mineral medium) | Enzyme activity: amount of released 4-methylumbelliferone during 5 hours of incubation (Eurotium sp. (AAS 36); vegetable juice medium) | Enzyme activity: amount of released 4-methylumbelliferone ([13]; mineral medium) | Enzyme activity: amount of released 4-methylumbelliferone during 5 hours of incubation ([13]; vegetable juice medium)
